In US20130338106A1, “COMPOUNDS INHIBITING LEUCINE-RICH REPEAT KINASE ENZYME ACTIVITY” (priority 2011, published 2013):

What was measured:
Assay type in all cases: biochemical
Settings in all cases: tested at 10 uM, read-out: percent inhibition of the kinase activity
CK1D = molecular target: T1, CK1D (Homo sapiens, UniProt P48730); experiment: ProfilerPro Kinase Selectivity, CK1D
T1 construct: purchased Caliper LifeSciences
Description: (§1) Kinome selectivity profiling was performed using two example compounds according to the manufacturer's instructions using Caliper LifeSciences' ProfilerPro Kinase Selectivity Assay Kits. Compounds prepared in Examples 1 and 7 were tested at 10 uM and data were recorded using the Caliper LabChip® EZ Reader™. Each compounds' percent inhibition of the kinase activity measured in this manner is reported in the following lists.

EPHB3 = molecular target: T2, EPHB3 (Homo sapiens, UniProt P54753); experiment: ProfilerPro Kinase Selectivity, EPHB3
T2 construct: purchased Caliper LifeSciences
Description: as §1

EPHA2 = molecular target: T3, EPHA2 (Homo sapiens, UniProt P29317); experiment: ProfilerPro Kinase Selectivity, EPHA2
T3 construct: purchased Caliper LifeSciences
Description: as §1

CASEIN K1G2 = molecular target: T4, CASEIN K1G2 (Homo sapiens, UniProt P78368); experiment: ProfilerPro Kinase Selectivity, CASEIN K1G2
T4 construct: purchased Caliper LifeSciences
Description: as §1

PKD1 = molecular target: T5, PKD1 (Homo sapiens, UniProt Q15139); experiment: ProfilerPro Kinase Selectivity, PKD1
T5 construct: purchased Caliper LifeSciences
Description: as §1

CDK2 = molecular target: T6, CDK2 (Homo sapiens, UniProt P24941); experiment: ProfilerPro Kinase Selectivity, CDK2
T6 construct: purchased Caliper LifeSciences
Description: as §1

CK1G3 = molecular target: T7, CK1G3 (Homo sapiens, UniProt Q9Y6M4); experiment: ProfilerPro Kinase Selectivity, CK1G3
T7 construct: purchased Caliper LifeSciences
Description: as §1

CAMK2G = molecular target: T8, CAMK2G (Homo sapiens, UniProt Q13555); experiment: ProfilerPro Kinase Selectivity, CAMK2G
T8 construct: purchased Caliper LifeSciences
Description: as §1

P38A/SAPK2A T106M = molecular target: T9, P38A/SAPK2A T106M (Homo sapiens, UniProt Q16539, T106M); experiment: ProfilerPro Kinase Selectivity, P38A/SAPK2A T106M
T9 construct: purchased Caliper LifeSciences
Description: as §1

RSK4 = molecular target: T10, RSK4 (Homo sapiens, UniProt Q9UK32); experiment: ProfilerPro Kinase Selectivity, RSK4
T10 construct: purchased Caliper LifeSciences
Description: as §1

PDGFRB = molecular target: T11, PDGFRB (Homo sapiens, UniProt P09619); experiment: ProfilerPro Kinase Selectivity, PDGFRB
T11 construct: purchased Caliper LifeSciences
Description: as §1

ZIPK = molecular target: T12, ZIPK (Homo sapiens, UniProt O43293); experiment: ProfilerPro Kinase Selectivity, ZIPK
T12 construct: purchased Caliper LifeSciences
Description: as §1

JAK2 = molecular target: T13, JAK2 (Homo sapiens, UniProt O60674); experiment: ProfilerPro Kinase Selectivity, JAK2
T13 construct: purchased Caliper LifeSciences
Description: as §1

TSSK2 = molecular target: T14, TSSK2 (Homo sapiens, UniProt Q96PF2); experiment: ProfilerPro Kinase Selectivity, TSSK2
T14 construct: purchased Caliper LifeSciences
Description: as §1

PKD2 = molecular target: T15, PKD2 (Homo sapiens, UniProt Q9BZL6); experiment: ProfilerPro Kinase Selectivity, PKD2
T15 construct: purchased Caliper LifeSciences
Description: as §1

YES = molecular target: T16, YES (Homo sapiens, UniProt P07947); experiment: ProfilerPro Kinase Selectivity, YES
T16 construct: purchased Caliper LifeSciences
Description: as §1

EPHB1 = molecular target: T17, EPHB1 (Homo sapiens, UniProt P54762); experiment: ProfilerPro Kinase Selectivity, EPHB1
T17 construct: purchased Caliper LifeSciences
Description: as §1

ROCK2 = molecular target: T18, ROCK2 (Homo sapiens, UniProt O75116); experiment: ProfilerPro Kinase Selectivity, ROCK2
T18 construct: purchased Caliper LifeSciences
Description: as §1

PDGFR A(550) = molecular target: T19, PDGFR A(550) (Homo sapiens, UniProt P16234); experiment: ProfilerPro Kinase Selectivity, PDGFR A(550)
T19 construct: purchased Caliper LifeSciences
Description: as §1

ARG = molecular target: T20, ARG (Homo sapiens, UniProt P42684); experiment: ProfilerPro Kinase Selectivity, ARG
T20 construct: purchased Caliper LifeSciences
Description: as §1

EPHA1 = molecular target: T21, EPHA1 (Homo sapiens, UniProt P21709); experiment: ProfilerPro Kinase Selectivity, EPHA1
T21 construct: purchased Caliper LifeSciences
Description: as §1

EGFR T790M L858R = molecular target: T22, EGFR T790M L858R (Homo sapiens, UniProt P00533, L858R/T790M); experiment: ProfilerPro Kinase Selectivity, EGFR T790M L858R
T22 construct: purchased Caliper LifeSciences
Description: as §1

MNK1 = molecular target: T23, MNK1 (Homo sapiens, UniProt Q9BUB5); experiment: ProfilerPro Kinase Selectivity, MNK1
T23 construct: purchased Caliper LifeSciences
Description: as §1

CAMK1A = molecular target: T24, CAMK1A (Homo sapiens, UniProt Q14012); experiment: ProfilerPro Kinase Selectivity, CAMK1A
T24 construct: purchased Caliper LifeSciences
Description: as §1

LCK = molecular target: T25, LCK (Homo sapiens, UniProt P06239); experiment: ProfilerPro Kinase Selectivity, LCK
T25 construct: purchased Caliper LifeSciences
Description: as §1

PAK5 = molecular target: T26, PAK5 (Homo sapiens, UniProt Q9P286); experiment: ProfilerPro Kinase Selectivity, PAK5
T26 construct: purchased Caliper LifeSciences
Description: as §1

PAK3 = molecular target: T27, PAK3 (Homo sapiens, UniProt O75914); experiment: ProfilerPro Kinase Selectivity, PAK3
T27 construct: purchased Caliper LifeSciences
Description: as §1

MARK4 = molecular target: T28, MARK4 (Homo sapiens, UniProt Q96L34); experiment: ProfilerPro Kinase Selectivity, MARK4
T28 construct: purchased Caliper LifeSciences
Description: as §1

RSK2 = molecular target: T29, RSK2 (Homo sapiens, UniProt P51812); experiment: ProfilerPro Kinase Selectivity, RSK2
T29 construct: purchased Caliper LifeSciences
Description: as §1

FMS = molecular target: T30, FMS (Homo sapiens, UniProt P07333); experiment: ProfilerPro Kinase Selectivity, FMS
T30 construct: purchased Caliper LifeSciences
Description: as §1

MET = molecular target: T31, MET (Homo sapiens, UniProt P08581); experiment: ProfilerPro Kinase Selectivity, MET
T31 construct: purchased Caliper LifeSciences
Description: as §1

FLT1 = molecular target: T32, FLT1 (Homo sapiens, UniProt P17948); experiment: ProfilerPro Kinase Selectivity, FLT1
T32 construct: purchased Caliper LifeSciences
Description: as §1

PKG1B = molecular target: T33, PKG1B (Homo sapiens, UniProt Q13976); experiment: ProfilerPro Kinase Selectivity, PKG1B
T33 construct: purchased Caliper LifeSciences
Description: as §1

FGFR1 = molecular target: T34, FGFR1 (Homo sapiens, UniProt P11362); experiment: ProfilerPro Kinase Selectivity, FGFR1
T34 construct: purchased Caliper LifeSciences
Description: as §1

FER = molecular target: T35, FER (Homo sapiens, UniProt P16591); experiment: ProfilerPro Kinase Selectivity, FER
T35 construct: purchased Caliper LifeSciences
Description: as §1

CDK1/CYCB1 = molecular target: T36, CDK1/CYCB1 (Homo sapiens, UniProt P06493); experiment: ProfilerPro Kinase Selectivity, CDK1/CYCB1
T36 construct: purchased Caliper LifeSciences
Description: as §1

EGFR T790M = molecular target: T37, EGFR T790M (Homo sapiens, UniProt P00533, T790M); experiment: ProfilerPro Kinase Selectivity, EGFR T790M
T37 construct: purchased Caliper LifeSciences
Description: as §1

EPHB2 = molecular target: T38, EPHB2 (Homo sapiens, UniProt P29323); experiment: ProfilerPro Kinase Selectivity, EPHB2
T38 construct: purchased Caliper LifeSciences
Description: as §1

T18 sequence (O75116 whole entry, species assumed): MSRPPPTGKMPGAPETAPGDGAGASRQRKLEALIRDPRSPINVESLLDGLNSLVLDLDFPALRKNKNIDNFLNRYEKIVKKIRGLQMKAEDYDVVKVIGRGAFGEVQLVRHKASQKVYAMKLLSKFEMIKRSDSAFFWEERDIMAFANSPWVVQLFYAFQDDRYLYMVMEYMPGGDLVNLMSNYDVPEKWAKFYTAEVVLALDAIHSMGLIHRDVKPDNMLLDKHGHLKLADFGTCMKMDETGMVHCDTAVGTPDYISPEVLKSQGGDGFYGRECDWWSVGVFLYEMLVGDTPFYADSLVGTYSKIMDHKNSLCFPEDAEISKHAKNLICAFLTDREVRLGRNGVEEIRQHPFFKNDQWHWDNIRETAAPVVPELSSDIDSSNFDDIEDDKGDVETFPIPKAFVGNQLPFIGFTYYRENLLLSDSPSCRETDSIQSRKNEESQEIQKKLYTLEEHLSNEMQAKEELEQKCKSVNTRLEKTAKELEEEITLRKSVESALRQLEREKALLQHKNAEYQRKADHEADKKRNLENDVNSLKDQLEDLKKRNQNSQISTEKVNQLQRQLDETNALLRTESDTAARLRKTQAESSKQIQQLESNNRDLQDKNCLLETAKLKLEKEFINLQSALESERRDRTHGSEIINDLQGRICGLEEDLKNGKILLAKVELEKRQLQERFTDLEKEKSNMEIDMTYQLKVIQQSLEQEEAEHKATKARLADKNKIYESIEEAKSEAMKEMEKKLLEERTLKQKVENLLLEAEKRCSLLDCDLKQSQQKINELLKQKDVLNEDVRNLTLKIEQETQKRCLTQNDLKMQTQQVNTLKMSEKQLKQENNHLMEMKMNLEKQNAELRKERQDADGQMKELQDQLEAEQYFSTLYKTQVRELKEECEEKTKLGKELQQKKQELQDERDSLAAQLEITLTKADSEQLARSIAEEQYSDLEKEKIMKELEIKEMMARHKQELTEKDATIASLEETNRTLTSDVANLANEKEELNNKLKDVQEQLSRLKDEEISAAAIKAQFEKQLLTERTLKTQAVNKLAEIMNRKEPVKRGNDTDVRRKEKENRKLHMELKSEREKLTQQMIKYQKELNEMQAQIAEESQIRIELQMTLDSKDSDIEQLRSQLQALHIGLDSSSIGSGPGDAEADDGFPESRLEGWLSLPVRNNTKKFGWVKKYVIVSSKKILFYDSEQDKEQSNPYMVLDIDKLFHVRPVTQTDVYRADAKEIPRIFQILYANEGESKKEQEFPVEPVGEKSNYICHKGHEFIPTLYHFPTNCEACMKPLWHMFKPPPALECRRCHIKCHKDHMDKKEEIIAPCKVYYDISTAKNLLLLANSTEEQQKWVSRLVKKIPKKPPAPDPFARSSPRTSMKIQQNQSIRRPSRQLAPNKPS
T27 sequence (O75914 whole entry, species assumed): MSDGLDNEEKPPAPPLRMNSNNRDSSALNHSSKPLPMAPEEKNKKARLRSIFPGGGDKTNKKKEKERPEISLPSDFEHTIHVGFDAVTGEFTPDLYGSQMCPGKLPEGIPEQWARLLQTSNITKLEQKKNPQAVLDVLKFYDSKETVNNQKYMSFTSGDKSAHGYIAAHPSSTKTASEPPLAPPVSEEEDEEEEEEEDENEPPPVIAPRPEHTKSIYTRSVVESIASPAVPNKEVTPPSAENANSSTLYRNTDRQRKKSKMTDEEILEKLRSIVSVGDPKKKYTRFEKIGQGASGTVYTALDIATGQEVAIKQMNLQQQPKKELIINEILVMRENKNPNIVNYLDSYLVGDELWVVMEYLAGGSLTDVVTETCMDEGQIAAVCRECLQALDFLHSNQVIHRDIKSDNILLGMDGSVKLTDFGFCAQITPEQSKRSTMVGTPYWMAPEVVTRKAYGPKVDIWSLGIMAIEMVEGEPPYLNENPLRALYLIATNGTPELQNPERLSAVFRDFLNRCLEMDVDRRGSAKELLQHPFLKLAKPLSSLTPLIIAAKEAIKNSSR
T12 sequence (O43293 whole entry, species assumed): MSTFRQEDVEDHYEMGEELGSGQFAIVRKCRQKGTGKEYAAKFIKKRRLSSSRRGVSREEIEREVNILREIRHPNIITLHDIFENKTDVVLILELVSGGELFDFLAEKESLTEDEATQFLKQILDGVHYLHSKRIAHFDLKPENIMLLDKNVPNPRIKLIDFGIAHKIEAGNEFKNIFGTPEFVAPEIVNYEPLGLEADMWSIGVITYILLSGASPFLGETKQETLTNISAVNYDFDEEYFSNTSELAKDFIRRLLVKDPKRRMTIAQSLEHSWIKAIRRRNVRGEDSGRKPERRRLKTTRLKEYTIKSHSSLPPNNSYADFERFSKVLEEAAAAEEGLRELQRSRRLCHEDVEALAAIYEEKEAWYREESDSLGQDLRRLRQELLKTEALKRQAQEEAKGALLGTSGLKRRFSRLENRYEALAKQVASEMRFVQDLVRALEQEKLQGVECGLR
T4 sequence (P78368 whole entry): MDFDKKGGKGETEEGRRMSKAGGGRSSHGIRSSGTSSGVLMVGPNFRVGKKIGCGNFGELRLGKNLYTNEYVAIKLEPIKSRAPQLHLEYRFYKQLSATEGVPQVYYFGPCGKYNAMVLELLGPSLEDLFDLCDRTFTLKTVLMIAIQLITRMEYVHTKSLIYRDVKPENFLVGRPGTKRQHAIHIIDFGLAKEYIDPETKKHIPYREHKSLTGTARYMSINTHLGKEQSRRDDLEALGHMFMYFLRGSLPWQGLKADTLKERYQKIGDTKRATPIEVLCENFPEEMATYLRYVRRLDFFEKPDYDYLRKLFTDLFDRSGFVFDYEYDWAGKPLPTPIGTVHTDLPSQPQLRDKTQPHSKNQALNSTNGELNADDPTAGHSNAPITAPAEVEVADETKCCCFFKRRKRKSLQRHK
T33 sequence (Q13976 1-686 isoform Q13976-2): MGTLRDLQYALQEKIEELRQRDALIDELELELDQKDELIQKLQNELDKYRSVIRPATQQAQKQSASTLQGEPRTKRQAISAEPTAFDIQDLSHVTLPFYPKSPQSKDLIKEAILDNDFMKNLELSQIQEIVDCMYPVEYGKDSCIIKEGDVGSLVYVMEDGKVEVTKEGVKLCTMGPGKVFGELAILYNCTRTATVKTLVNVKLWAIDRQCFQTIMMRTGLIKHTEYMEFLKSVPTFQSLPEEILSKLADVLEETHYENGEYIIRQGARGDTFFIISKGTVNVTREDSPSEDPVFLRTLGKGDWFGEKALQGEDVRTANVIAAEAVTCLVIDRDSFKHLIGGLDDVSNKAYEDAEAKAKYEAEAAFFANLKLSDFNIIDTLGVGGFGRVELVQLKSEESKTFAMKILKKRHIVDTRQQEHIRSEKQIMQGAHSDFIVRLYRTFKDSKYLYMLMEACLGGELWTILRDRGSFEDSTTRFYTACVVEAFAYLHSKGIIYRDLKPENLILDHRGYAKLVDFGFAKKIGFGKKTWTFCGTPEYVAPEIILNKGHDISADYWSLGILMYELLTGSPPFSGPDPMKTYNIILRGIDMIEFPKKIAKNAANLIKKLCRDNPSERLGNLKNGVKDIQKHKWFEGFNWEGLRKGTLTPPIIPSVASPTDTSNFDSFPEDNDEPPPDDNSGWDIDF
T25 sequence (P06239 whole entry, species assumed): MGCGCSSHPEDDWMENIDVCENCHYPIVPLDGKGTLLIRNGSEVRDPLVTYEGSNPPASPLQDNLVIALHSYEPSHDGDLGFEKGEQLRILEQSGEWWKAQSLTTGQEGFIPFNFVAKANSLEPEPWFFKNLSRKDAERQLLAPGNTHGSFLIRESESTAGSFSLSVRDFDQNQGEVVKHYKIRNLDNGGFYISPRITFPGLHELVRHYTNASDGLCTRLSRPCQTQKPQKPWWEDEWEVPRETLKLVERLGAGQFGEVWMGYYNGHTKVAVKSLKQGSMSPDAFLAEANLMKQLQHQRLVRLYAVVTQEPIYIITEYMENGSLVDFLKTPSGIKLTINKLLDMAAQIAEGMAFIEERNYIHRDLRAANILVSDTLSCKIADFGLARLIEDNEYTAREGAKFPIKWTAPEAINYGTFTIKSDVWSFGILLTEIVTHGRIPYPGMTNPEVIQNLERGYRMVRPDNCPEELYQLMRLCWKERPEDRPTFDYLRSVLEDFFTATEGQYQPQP
T9 sequence (Q16539 2-360 T106M): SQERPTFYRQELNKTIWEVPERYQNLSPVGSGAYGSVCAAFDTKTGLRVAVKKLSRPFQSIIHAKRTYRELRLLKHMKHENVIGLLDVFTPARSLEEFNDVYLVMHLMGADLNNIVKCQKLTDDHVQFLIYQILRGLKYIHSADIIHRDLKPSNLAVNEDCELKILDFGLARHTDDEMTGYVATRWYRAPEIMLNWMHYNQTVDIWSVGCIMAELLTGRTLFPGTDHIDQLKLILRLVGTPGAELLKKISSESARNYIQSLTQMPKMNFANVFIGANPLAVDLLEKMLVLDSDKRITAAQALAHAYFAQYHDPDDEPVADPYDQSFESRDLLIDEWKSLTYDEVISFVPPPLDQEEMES
T7 sequence (Q9Y6M4 whole entry): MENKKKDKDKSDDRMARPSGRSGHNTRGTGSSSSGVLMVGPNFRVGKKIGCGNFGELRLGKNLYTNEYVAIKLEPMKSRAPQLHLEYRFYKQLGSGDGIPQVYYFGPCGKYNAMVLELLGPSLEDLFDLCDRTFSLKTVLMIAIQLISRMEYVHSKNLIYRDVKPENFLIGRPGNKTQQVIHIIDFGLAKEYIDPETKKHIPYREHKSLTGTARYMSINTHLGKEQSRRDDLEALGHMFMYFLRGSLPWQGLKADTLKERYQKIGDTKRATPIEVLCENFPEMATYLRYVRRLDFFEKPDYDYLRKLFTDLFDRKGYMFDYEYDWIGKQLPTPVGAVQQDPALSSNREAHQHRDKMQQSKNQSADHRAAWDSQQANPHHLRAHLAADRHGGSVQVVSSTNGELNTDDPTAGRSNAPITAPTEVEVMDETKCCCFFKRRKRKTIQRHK

| Structure (SMILES) | inhibition at 10 µM (CK1D) [%] | inhibition at 10 µM (EPHB3) [%] | inhibition at 10 µM (EPHA2) [%] | inhibition at 10 µM (CASEIN K1G2) [%] | inhibition at 10 µM (PKD1) [%] | inhibition at 10 µM (CDK2) [%] | inhibition at 10 µM (CK1G3) [%] | inhibition at 10 µM (CAMK2G) [%] | inhibition at 10 µM (P38A/SAPK2A T106M) [%] | inhibition at 10 µM (RSK4) [%] | inhibition at 10 µM (PDGFRB) [%] | inhibition at 10 µM (ZIPK) [%] | inhibition at 10 µM (JAK2) [%] | inhibition at 10 µM (TSSK2) [%] | inhibition at 10 µM (PKD2) [%] | inhibition at 10 µM (YES) [%] | inhibition at 10 µM (EPHB1) [%] | inhibition at 10 µM (ROCK2) [%] | inhibition at 10 µM (PDGFR A(550)) [%] | inhibition at 10 µM (ARG) [%] | further results |
| --- | --- | --- | --- | --- | --- | --- | --- | --- | --- | --- | --- | --- | --- | --- | --- | --- | --- | --- | --- | --- | --- |
| CSc1sc(-c2cc[nH]n2)c2c1C(=O)CCC2 [Example 1, 3-(Methylsulfanyl)-1-(1H-pyrazol-3-yl)-6,7-dihydro-2-benzothiophen-4(5H)-one] | 44.6 | -1 | 0.7 | 6.9 | 5.5 | 18.4 | 1.1 | 3.1 | 1.2 | 2.9 | 22.1 | 8.1 | 19.4 | 20.1 | -2.5 | -4.4 | 3 | -3.5 | 1.5 | -6 | inhibition at 10 µM (EPHA1): 2.8%; inhibition at 10 µM (EGFR T790M L858R): 3.9%; inhibition at 10 µM (MNK1): 1.7%; inhibition at 10 µM (CAMK1A): 7.4%; inhibition at 10 µM (LCK): 4%; inhibition at 10 µM (PAK5): -0.6%; inhibition at 10 µM (PAK3): -13.1%; inhibition at 10 µM (MARK4): -9.4%; inhibition at 10 µM (RSK2): 5.5%; inhibition at 10 µM (FMS): -36.1%; inhibition at 10 µM (MET): 8.2%; inhibition at 10 µM (FLT1): 1.2%; inhibition at 10 µM (PKG1B): 10.8%; inhibition at 10 µM (FGFR1): 1.9%; inhibition at 10 µM (FER): 11.6%; inhibition at 10 µM (CDK1/CYCB1): 5.3%; inhibition at 10 µM (EGFR T790M): 1.8%; inhibition at 10 µM (EPHB2): 2.6% |
| CC1(C)CC(=O)c2c(SC3CCCC3)sc(-c3cc[nH]n3)c2C1 [Example 7, 3-(Cyclopentylsulfanyl)-6,6-dimethyl-1-(1H-pyrazol-3-yl)-6,7-dihydro-2-benzothiophen-4(5H)-one] | 12.9 | 2.2 | 0.7 | 8.6 | -10.6 | 2.1 | 7.7 | 4.4 | 3.7 | -5.6 | -1.4 | 1 | 5.3 | -2.3 | -4.2 | -11.1 | 3.3 | 0.9 | -13.8 | 8.6 | inhibition at 10 µM (EPHA1): -0.2%; inhibition at 10 µM (EGFR T790M L858R): 13.7%; inhibition at 10 µM (MNK1): -5.6%; inhibition at 10 µM (CAMK1A): 6%; inhibition at 10 µM (LCK): 23.3%; inhibition at 10 µM (PAK5): -4.4%; inhibition at 10 µM (PAK3): -170%; inhibition at 10 µM (MARK4): 11.6%; inhibition at 10 µM (RSK2): 3.5%; inhibition at 10 µM (FMS): -6.5%; inhibition at 10 µM (MET): -0.9%; inhibition at 10 µM (FLT1): 11.8%; inhibition at 10 µM (PKG1B): -0.6%; inhibition at 10 µM (FGFR1): 7.4%; inhibition at 10 µM (FER): -0.2%; inhibition at 10 µM (CDK1/CYCB1): -6.7%; inhibition at 10 µM (EGFR T790M): -1.9%; inhibition at 10 µM (EPHB2): 2.3% |
